Laboratory results as given in BindingDB's records for doi:10.1016/j.bmcl.2019.02.034 (Wroclaw University of Technology, 2019).
Where a SMILES comes first, the peptide text is derived from it. The star is where a group is joined. X1 = CC(C)CC(CP(=O)(O)[C@@H](N)CCc1ccccc1)C(=O)*

Biological target: Leucyl-cystinyl aminopeptidase (Homo sapiens) (UniProt Q9UIQ6)
Experiment: Inhibition of human IRAP using L-leucine 7-amido-4-methyl coumarin substrate by microplate fluorescence reader based assay

Chain of Leucyl-cystinyl aminopeptidase (Homo sapiens) (Q9UIQ6 whole entry, looked up): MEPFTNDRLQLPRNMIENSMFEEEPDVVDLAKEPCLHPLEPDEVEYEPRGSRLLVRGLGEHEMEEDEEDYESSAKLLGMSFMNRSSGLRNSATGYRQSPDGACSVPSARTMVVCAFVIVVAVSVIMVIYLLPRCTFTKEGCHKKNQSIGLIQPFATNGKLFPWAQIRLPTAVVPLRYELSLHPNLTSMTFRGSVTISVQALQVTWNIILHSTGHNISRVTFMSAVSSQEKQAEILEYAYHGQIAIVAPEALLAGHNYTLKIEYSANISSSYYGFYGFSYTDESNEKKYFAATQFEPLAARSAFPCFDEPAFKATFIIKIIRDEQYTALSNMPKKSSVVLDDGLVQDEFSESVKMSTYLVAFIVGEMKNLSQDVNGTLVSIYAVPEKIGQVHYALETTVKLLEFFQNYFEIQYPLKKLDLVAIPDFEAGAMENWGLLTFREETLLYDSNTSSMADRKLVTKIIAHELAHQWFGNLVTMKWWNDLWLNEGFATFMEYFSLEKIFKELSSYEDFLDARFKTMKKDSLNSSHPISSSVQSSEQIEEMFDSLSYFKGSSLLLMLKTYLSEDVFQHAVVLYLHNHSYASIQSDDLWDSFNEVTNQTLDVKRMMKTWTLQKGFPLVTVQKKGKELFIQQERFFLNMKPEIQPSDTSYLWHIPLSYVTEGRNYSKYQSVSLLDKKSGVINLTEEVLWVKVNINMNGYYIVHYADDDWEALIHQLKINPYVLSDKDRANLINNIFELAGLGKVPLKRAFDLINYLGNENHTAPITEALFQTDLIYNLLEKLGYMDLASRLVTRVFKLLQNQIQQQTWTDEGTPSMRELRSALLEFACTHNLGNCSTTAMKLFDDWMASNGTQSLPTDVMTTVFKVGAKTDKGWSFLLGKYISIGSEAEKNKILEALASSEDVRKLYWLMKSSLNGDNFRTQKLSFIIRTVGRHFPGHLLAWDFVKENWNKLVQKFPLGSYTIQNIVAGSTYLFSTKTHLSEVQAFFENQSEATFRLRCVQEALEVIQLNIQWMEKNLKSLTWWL

| IC50 [nM] | Structure (SMILES) |
| --- | --- |
| 2 | C#CC[C@H](CP(=O)(O)[C@@H](N)CCc1ccccc1)C(=O)N[C@@H](Cc1ccccc1)C(N)=O |
| 32 | NC(=O)[C@H](Cc1ccccc1)NC(=O)[C@H](CCC(c1ccccc1)c1ccccc1)CP(=O)(O)[C@@H](N)CCc1ccccc1 |

| Structure (SMILES) | IC50 [nM] |
| --- | --- |
| CC(C)CC(CP(=O)(O)[C@@H](N)CCc1ccccc1)C(=O)N[C@@H](CCCCN)C(=O)N[C@@H](Cc1cnc[nH]1)C(=O)N[C@@H](Cc1cnc[nH]1)C(=O)N[C@@H](C)C(=O)N[C@@H](Cc1ccccc1)C(=O)N[C@@H](CO)C(=O)N[C@@H](Cc1ccccc1)C(=O)N[C@@H](CCCCN)C(N)=O (stereo partly drawn) (X1-KHHAFSFK-NH2) | 7.7 |
